In data set [1] the test system is SkBr3 (Her2 overexpressing breast cancer cells). Briefly: Anti-proliferation activity against SkBr3 cells (MTS/PMS). To be noted: up to 100 μM. It counts as cell-based. In outline: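 Viability after 72 h compound treatment (1% DMSO final, 37° C., 5% CO2) measured by MTS/PMS; plating density 2000 cells/well with overnight attachment.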
Data set [2] concerns Hsp90-dependent client protein phospho-AKT in SKBr3 breast cancer cells. As to the kind of experiment: Degradation of phospho-AKT, Western blot in SKBr3 cells. It counts as cell-based. To be noted: 100 μM. The protocol: Total protein concentration of each lysate was determined and equal amounts of protein were run in each lane of the gels. For the graphs shown in FIG. 1, the O.D.'s (optical density) of the Western bands for phospho-AKT were measured, as were the O.D.'s for actin probed as controls on the same blots. To obtain the graphed values, all specific O.D.'s (for Hsp90 clients) were normalized to the respective actin O.D.
Inhibition of Hsp90 results in the degradation of Hsp90-dependent clients via ubiquitination of the unfolded client followed by proteasome-mediated hydrolysis. […] Geldanamycin (GDA, 0.5 μM) was used as a positive control for Hsp90 inhibition.
In general terms: In western blotting, separated proteins are transferred to a membrane and probed.

For data set [3], the system named is Hsp90 client protein Her-2 in Skbr3 breast cancer cells. Briefly: Degradation of Her-2, Western blot in Skbr3 cells. It counts as cell-based. The protocol:
After incubation, the cells were harvested, lysed, and equal amounts of the protein lysates loaded into SDS wells. After electrophoresis, the gel was probed with Her-2 and actin (control) antibodies.

For the next data set, the system named is primary cortical neurons. As to the kind of experiment: Toxicity of drug alone in neuronal cells (Live-Dead assay). It counts as cell-based. The text has this: More specifically, primary cortical neurons were recovered from embryonic day 18 rat brains as described previously (Michaelis et al., Immunological Localization And Kinetic Characterization Of A Na+/Ca2+Exchanger In Neuronal And Nonneuronal Cells, Brain Res. 661 104-116 (1994)). Briefly, about 10 to 16 brains were removed from fetuses delivered by cesarean section, and the cortices dissected out. The neurons were isolated and suspended in DMEM/F12 supplemented with 10% FBS and plated on sterile dishes or cover slips coated with 10 μg/ml poly-D-lysine and 5 μg/ml mouse laminin. After 24 hours, the serum-containing medium was removed, and neurons were maintained in Neurobasal medium (Gibco) with 2% B-27 supplements (Gibco). Cells were maintained in culture at 37° C. in 5% CO2 and 97% humidity for 7 to 8 eight days in vitro (DIV) before use. […] Stock solutions of Aβ were prepared in sterile water at a concentration of 1.3 mM and stored at −20° C. Aliquots of the stock solutions were diluted to 1 mM in sterile 50 mM Tris-HCl, pH 7.4, and incubated at 37° C. for 24 hours to promote oligomerization of the peptides prior to treatment of the neurons. The effects of KU-1/A4, GA, Aβ, or the indicated combinations on neuronal viability were determined by monitoring cell survival using the Live-Dead assay as previously described. […] Digital images from 6 fields per dish were captured, and the number of viable (green) and dead (red) cells counted. All experiments were conducted with duplicate dishes from at least two neuronal preparations for each treatment, with about 1,000 cells analyzed/treatment condition. The data are expressed as the fraction of viable cells calculated from the total number of neurons counted under each treatment condition. The significance of differences between cultures exposed to various treatment conditions was determined using Student's t-test.

Data set [4] has as its system Hsp70 in primary cortical neurons. Briefly: Hsp70 up-regulation in neuronal cells (immunoblot). It counts as cell-based, rat. The protocol: Inhibition of Hsp90 induces overexpression of both Hsp90 and Hsp70 through dissociation of Hsp90-HSF-1 complexes and subsequent translocation of HSF-1 to the nucleus. […] Thus, in this example, an immunoblot analysis of neuronal cells was performed for Hsp70.
Primary cortical neurons were prepared as described herein. Cells were incubated (37° C. in 5% CO2) with the indicated concentrations of GA or KU-1/A4 for 24 or 48 hours. Cells were washed three times with phosphate buffered saline (PBS), followed by addition of a cell lysis buffer (50 mM Tris-HCL, 150 mM NaCl, 5 mM EDTA, 5 mM EGTA, 1% NP40, 10% Glycerol, 1 mM Na3VO4, 10 mM sodium molybdate, 40 mM NaF, and 10 ul/ml of Calbiochem protease inhibitor cocktail III). Cells were collected by scraping the dishes and aspirating all contents. […] The membranes were probed with the indicated primary HSP70 antibody (1:500, Upstate Biotechnology) and immunoreactive proteins detected using the Lumiglo Western Blot Protein Detector Kit (KPL). The immunoblots were scanned using a Kodak Image Station 2000R to determine the pixel density of the bands and imported into Photoshop and analyzed as described in Zaidi et al., Oxidative inactivation of purified plasma membrane Ca2+-ATPase by hydrogen peroxide and protection by calmodulin, Biochem. 42 12001-12010 (2003). All blots were re-probed with antibodies to β-actin I-19R (Santa Cruz) as a loading control and the data are presented as the ratio of Hsp70 to actin in each lane. Cells from at least three separate cultures for each treatment condition were examined, and the significance of differences in the immunoreactivities of the bands observed under the various treatment conditions was assessed by Student's t-test for unpaired samples.

As to `CO[C@@H]1[C@@H](O)[C@@H](O)[C@H](Oc2ccc3cc(NC(C)=O)c(=O)oc3c2)OC1(C)C` [KU-1/A4, N-(7-((2R,3R,4S,5R)-3,4-dihydroxy-5-methoxy-6,6-dimethyl-tetrahydro-2H-pyran-2-yloxy)-2-oxo-2H-chromen-3-yl)acetamide], in data set [1], the “anti-proliferative effects SkBr3” value is reported as “no anti-proliferative effects”. Besides, the “degradation of phosphorylated AKT (Hsp90 inhibition)” value in data set [2] is recorded as “the most potent novobiocin analogues identified”. The “IC50 (concentration producing 50% degradation of Her-2)” value in data set [3] (24 hours, normalized against actin) was “low micromolar range”. The “concentrations between which a rapid decrease in Her-2 was observed” value in data set [3] (tested at 100 nM, 1 μM and 10 μM) is “between 100 nM and 1 μM”. Besides, the “neurotoxicity of compound alone” value in the data set with primary cortical neurons (100 nM (20× the EC50)) is reported as “did not result in any observed neurotoxicity”. For the same compound, in the data set on primary cortical neurons (10 μM, 72 hours), the “toxic effects in neuronal cells” value is on record as “no toxic effects”. The “toxicity of the drug alone to neurons” value with primary cortical neurons (primary neurons, drug alone) is “no toxicity”. Moreover, the “Hsp70 levels (ratio of Hsp70 to actin)” value in data set [4] (0.2 μM, 48 hours) is listed as “significantly increased Hsp70 levels”. For the same compound, the “lowest concentration leading to increases in Hsp70 levels” value in data set [4] (48 hours, compared to DMSO controls) was found to be 1 nM. Moreover, the Hsp70 levels result in data set [4] (higher concentrations (1 and 10 μM)) is “did not significantly increase Hsp70 levels”.

Source of the values: patent publication US9120774B2 (University of Kansas, priority 2009, dated 2015).
